Source: patent US11813235B2, “Guanfacine as an anti-virulence agent” (priority 2019, dated 2023)
Where two headings read alike, the source gives them in different places. *1 amine or outer side, *2 acyl side, *3 side chain or, on linkers, in order; H or OH if unused. Where a SMILES comes first, the peptide text is derived from it. Bridges are numbered along the chain shown (N, C = ends). [ ]: non-standard residue; d: D form. The star is where a group is joined. hTyr(3S-OH,4S-OH,3'-OSO3H) = N[C@H](C(=O)O)[C@H](O)[C@@H](O)c1ccc(O)c(OS(=O)(=O)O)c1; Orn(4R-OH,5R-OH) = O=C([C@H](C[C@@H](O)[C@@H](O)N[*:3])N[*:1])[*:2]; Pro(3S-OH,4S-Me) = C[C@H]1CN[C@H](C(=O)O)[C@H]1O; X1 = CCCCCOc1ccc(-c2cc(-c3ccc(C(=O)*)cc3)no2)cc1; Gln(3R-OH) = NC(=O)C[C@@H](O)[C@H](N)C(=O)O; Hyp = O=C(O)[C@@H]1C[C@@H](O)CN1

How the values were obtained:
[1] = system: virulence factor expression (seven lacZ reporter strains); assay type: cell-based, Pseudomonas aeruginosa
Description: Seven reporter strains from the sequence-verified transposon mutant library generated by Manoil and colleagues were identified, in which transposons carrying a promoterless lacZ reporter were inserted into the genome of P. aeruginosa. The strains selected carried an in-frame lacZ reporter in aprD (alkaline protease), pqsA (PQS biosynthesis), hcnB (HCN biosynthesis), algK (alginate biosynthesis), phzB2 and phzF1 (phenazine biosynthesis from two different gene clusters), and plcH (phospholipase C). […] By carrying out an ex vivo LacZ assay, all LacZ assay inhibitors in a library of small molecules were identified. Growth-inhibition assays using the small molecule library were performed by monitoring optical density at 600 nm (OD600 nm).
After a defined growth period, the expression of each of the seven reporter strains was determined using high-throughput LacZ assays. The LacZ activity was normalized relative to the negative control. The log10 of the fold-change for each of the seven strains were combined and colorized to produce an anti-virulence heat-map.
(§6) In various examples, bacterial growth was carried out in LB supplemented with 50 mM Mops, pH 7.0 (hereafter, LB-Mops). To commence a screen, a P. aeruginosa reporter strain from an LB agar plate was used to inoculate 5 mL of LB-Mops medium in a sterile 14-mL bacterial culture tube. The culture was grown for 4 h at 30° C./250 rpm. After 4 h, its optical density (OD600 nm) was determined on a Cary 60 UV-visible spectrophotometer (Agilent). The culture was diluted into 100 mL of LB-Mops to give a final OD600 nm of 0.05. Subsequently a volume of 50 μL was dispensed into each of six sterile, 384 well plates (Corning) using a Multiflo Microplate Dispenser (Biotek). Candidate elicitors were added to the plates using a CyBi-Well automated liquid transfer robot (CyBio). Each well was supplemented with 0.2 μL of a compound from the Enzo Scientific FDA approved drug library, which comprises 770 molecules. The compounds were dispensed into columns 3 through 22 on each plate. Columns 2 and 23 contained the negative control (the reporter strain being tested in the absence of any compounds), and columns 1 and 24 contained the positive control (e.g., strain phzB2-lacZ). Each compound was tested in duplicate, using three 384-well plates per set. Each plate was covered with a Breathe-Easy sealing membrane (Sigma) and cultured at 30° C./250 rpm in a Multitron Shaker (ATR) equipped with green sealing tray. To maintain constant humidity, several 1-L Erlenmeyer flasks containing 200 mL of sterile water were also placed inside the shaker. After 12 h, the plates were removed from the shaker. The β-Glo reagent (Promega) was used to monitor LacZ activity. The reagent was diluted 3:1 with water. Then each well was supplemented with 15 μL of the diluted β-Glo reagent using the Multiflo automated dispenser, manually shaken to mix, and incubated in the dark at room temperature for 10 min. Total end-point luminescence was then determined on a Synergy H1MF plate reader (Biotek).

P. aeruginosa [2] = assay type: cell-based, Pseudomonas aeruginosa
Procedure: Growth and high-throughput LacZ assays were optimized in a 384-well plate format using three reporter strains In order to identify down-regulators of virulence, rather than growth-inhibitors of P. aeruginosa, special care was taken to eliminate compounds that (i) interfered with the LacZ assay and (ii) affected P. aeruginosa growth. […] Growth-inhibition assays using the small molecule library were performed by monitoring optical density at 600 nm (OD600 nm).
as §6

[3] = system: P. aeruginosa phzF1-lacZ strain; assay: Dose-dependent growth inhibition of phzF1-lacZ strain by antibiotics; assay type: cell-based
phzF1-lacZ = assay: microbe, parasite or virus in culture; assay type: cell-based
phzB2-lacZ = phzB2-lacZ reporter dose-response; assay type: cell-based; settings: Pseudomonas aeruginosa, read-out: IC50, concentration at which half-maximal down-regulation was observed (phzB2 reporter)
Procedure: FIG. 3B is a graph showing the dose-response of phzB2-lacZ as a function of guanfacine concentration.
Assays were carried out in 50 mL Erlenmeyer flasks containing 10 mL of LB-Mops. For LacZ assays, an appropriate reporter strain from an LB agar plate was used to inoculate 5 mL of LB-Mops in a sterile 14 mL bacterial culture tube. After 4 h, OD600 nm was determined, and the culture subsequently diluted to an initial OD600 nm of 0.05 in a 50 mL Erlenmeyer flask. The compound of interest was added from stock concentrations generated in DMSO. A control containing only DMSO was also included. Assays were typically carried out in three biological replicates. A positive control culture, phzB2-lacZ in the absence of any compounds, was grown in parallel as well. The cultures were grown at 30° C./200 rpm. After 12 h, 65 μL was removed from each culture flask and dispensed into a sterile, white 96-well plate (Corning). Each well was supplemented with 35 μL of 3:1 diluted β-Glo reagent (Promega). The plate was incubated in the dark at room temperature for 10 minutes. End-point luminescence was determined on a Biotek H1MF plate reader. To obtain IC50 values, the averaged luminescence output (used to determine LacZ activity) was plotted against the log of the concentration of the inhibitor. The data were fit to a dose-response curve using GraphPad Prism software.

HHQ and PQS production = assay: HPLC-MS quantification of HHQ and PQS in wt P. aeruginosa; assay type: cell-based, Pseudomonas aeruginosa
Procedure: FIG. 3D is a graph showing the relative quantification of HHQ and PQS produced by wt P. aeruginosa as a function of guanfacine concentration, normalized to an untreated control.
[…]. This HPLC analysis of cell-free supernatants of P. aeruginosa in the absence (solid lines) or presence (dashed lines) of 40 μM guanfacine. Peaks corresponding to HHQ and PQS are labeled, peaks of other quinolones are indicated with an asterisk.
The effects of guanfacine were probed further by measuring the levels of pyocyanin, a downstream product of phenazine. Pyocyanin is the blue secondary metabolite responsible for both the toxicity and characteristic color of P. aeruginosa. […]. […] To verify that guanfacine acts upstream of both products, levels of quinolines were directly measured. […]
(§1) HPLC-MS analysis. Direct detection and quantification of HHQ and PQS was carried out by growing wt P. aeruginosa under identical conditions as described above (for growth in 50 mL Erlenmeyer flasks). […] The organic layer was separated, dried completely in a speedvac concentrator, resuspended in 0.5 mL of MeOH, and analysed on an Agilent HPLC-MS consisting of a liquid autosampler, a 1260 Infinity Series HPLC system coupled to a photodiode array detector and a 6120 Series ESI mass spectrometer. […]

[4] = system: seven virulence genes (aprD, pqsA, hcnB, algK, phzB2, phzF1, plcH lacZ reporters); assay: LacZ assay in flask cultures, seven virulence reporter strains; assay type: cell-based, Pseudomonas aeruginosa; settings: relative to untreated control
Description: FIG. 3A is a graph showing the transcriptional down-regulation of seven virulence genes by guanfacine relative to an untreated control.
The effect of guanfacine on the expression of virulence factors was verified in flask cultures. […].
In one example, reporter genes for the various virulence factors encoded in the P. aeruginosa genome were selected. Seven reporter strains from the sequence-verified transposon mutant library generated by Manoil and colleagues were identified, in which transposons carrying a promoterless lacZ reporter were inserted into the genome of P. aeruginosa. The strains selected carried an in-frame lacZ reporter in aprD (alkaline protease), pqsA (PQS biosynthesis), hcnB (HCN biosynthesis), algK (alginate biosynthesis), phzB2 and phzF1 (phenazine biosynthesis from two different gene clusters), and plcH (phospholipase C). […]
Assays were carried out in 50 mL Erlenmeyer flasks containing 10 mL of LB-Mops. […] After 4 h, OD600 nm was determined, and the culture subsequently diluted to an initial OD600 nm of 0.05 in a 50 mL Erlenmeyer flask. […] End-point luminescence was determined on a Biotek H1MF plate reader. To obtain IC50 values, the averaged luminescence output (used to determine LacZ activity) was plotted against the log of the concentration of the inhibitor. […]

pyocyanin biosynthesis = assay: Pyocyanin quantification; assay type: cell-based, Pseudomonas aeruginosa; settings: treated vs untreated cultures, concentration-dependent
Description: FIG. 3C is a graph showing the dose-dependent reduction of pyocynanin biosynthesis as a function of guanfacine concentration.
The effects of guanfacine were probed further by measuring the levels of pyocyanin, a downstream product of phenazine. Pyocyanin is the blue secondary metabolite responsible for both the toxicity and characteristic color of P. aeruginosa. […]. Without being bound to a particular theory, the likely cause of the incomplete suppression of pyocyanin synthesis is the existence of two independently-expressed copies of the phenazine biosynthetic operon. Nonetheless, the direct measurement of pyocyanin corroborates results observed with the reporter strains. The production of both phenazines and pyocyanin is known to be regulated by the las and pqs QS circuits. Specifically, in response to 3O-C12-HSL, LasR induces expression of the pqs operon and the LysR-type regulator, PqsR. The PQS/PqsR complex then activates phenazine and pyocyanin synthesis. To verify that guanfacine acts upstream of both products, levels of quinolines were directly measured. […].
(§2) Pyocyanin quantification. Pyocyanin quantification was carried by a method adapted from Essar et al.[17] […] 120 μL of this extract was transferred to a clear 96-well plate and the OD520 nm was recorded using a plate reader. […]

P. aeruginosa [5] = assay: Growth curve of P. aeruginosa in absence and presence of guanfacine; assay type: cell-based, Pseudomonas aeruginosa; settings: 10, 20, 40 and 80 μM guanfacine
Procedure: FIG. 2 is a graph showing the growth curve of P. aeruginosa in the absence (DMSO) and presence of guanfacine in various concentrations (10 μM, 20 μM, 40 μM, and 80 μM).

pelG-lacZ = pelG-lacZ reporter dose-response; assay type: cell-based, Pseudomonas aeruginosa
Description: (§3) FIG. 3F is a graph of the dose-response of the expression of pelG and pelB, involved in biofilm production, as a function of guanfacine concentration, using the appropriate LacZ reporter strain.
(§4) Another important virulence determinant in P. aeruginosa is biofilm formation. A cluster of genes, termed pel regulated by the las QS system, have been established as responsible for producing the biofilm matrix exopolysaccharide. Two reporter strains carrying translational lacZ fusions (pelB-lacZ and pelG-lacZ) were subjected to guanfacine dose-response analysis. […].
(§5) Assays were carried out in 50 mL Erlenmeyer flasks containing 10 mL of LB-Mops. For LacZ assays, an appropriate reporter strain from an LB agar plate was used to inoculate 5 mL of LB-Mops in a sterile 14 mL bacterial culture tube. After 4 h, OD600 nm was determined, and the culture subsequently diluted to an initial OD600 nm of 0.05 in a 50 mL Erlenmeyer flask. The compound of interest was added from stock concentrations generated in DMSO. A control containing only DMSO was also included. Assays were typically carried out in three biological replicates. […] End-point luminescence was determined on a Biotek H1MF plate reader. To obtain IC50 values, the averaged luminescence output (used to determine LacZ activity) was plotted against the log of the concentration of the inhibitor. […]

pelB-lacZ = pelB-lacZ reporter dose-response; assay type: cell-based, Pseudomonas aeruginosa
Description: as §3, §4, §5

[6] = system: pmrB::Tn mutant (QseC homolog); assay: HHQ and pyocyanin production in pmrB::Tn mutant; assay type: cell-based, Pseudomonas aeruginosa; settings: pmrB::Tn cultures supplemented with guanfacine
Procedure: FIG. 4 is a graph of the quantification of the levels of HHQ (black bars) and pyocyanin (white bars) in guanfacine-treated and untreated cultures.
To explore this idea, a mutant carrying a transposon insertion in pmrB (pmrB::Tn) was tested. Both wt and mutant strains were grown in the presence of guanfacine or DMSO (control), and the production of HHQ was quantified directly using HPLC-MS, while pyocyanin synthesis was assessed as previously reported. […] In the absence of the sensor His kinase, guanfacine was unable to exert its down-regulatory effect, especially with pyocyanin where significant production remained.
as §1, §2

[7] = LacZ activity normalized to negative control, seven reporter strains
[8] = relative to the untreated strain, OD600 nm after 12 h
[9] = Pseudomonas aeruginosa, PHZF1LACZSTRAIN; read-out: growth-inhibitory IC50
[10] = Pseudomonas aeruginosa; read-out: EC50, concentration at which induction of phzF1-lacZ was half-maximal

Cc1ccc(C(=O)c2cc(O)c(O)c([N+](=O)[O-])c2)cc1 [tolcapone]
effect on virulence factor expression in screen [1, 7]: A similar effect

CC(C(=O)O)c1cccc(C(=O)c2ccccc2)c1 (stereo not drawn) [ketoprofen]
effect on virulence factor expression in screen [1]: down-regulated virulence factor expression

CCCCCCCCc1ccc(CCC(N)(CO)CO)cc1 [Fingolimod]
% Growth Inhibition (P. aeruginosa [2]; [8]): 76%

CN1CCc2cccc3c2[C@H]1Cc1ccc(O)c(O)c1-3 [apomorphine]
effect on virulence factor expression in screen [1]: A similar effect

[H]/N=C(\N/C(=N/[H])NCCCCCCNC(=N)NC(=N)Nc1ccc(Cl)cc1)Nc1ccc(Cl)cc1 [Chlorhexidine]
% Growth Inhibition (P. aeruginosa [2]; [8]): 96%

CC(C)Cc1ccc(C(C)C(=O)O)cc1 (stereo not drawn) [ibuprofen]
effect on virulence factor expression in screen [1, 7]: down-regulated virulence factor expression

Colistin
% Growth Inhibition (P. aeruginosa [2]; [8]): 96%

C/C=C/C1=C(C(=O)O)N2C(=O)[C@@H](NC(=O)[C@H](N)c3ccc(O)cc3)[C@H]2SC1 [cefprozil]
IC50 ([3]; Pseudomonas aeruginosa, PHZF1LACZSTRAIN, read-out: growth-inhibitory IC50): 362 µM | EC50 (phzF1-lacZ; Pseudomonas aeruginosa, read-out: EC50, concentration at which induction of phzF1-lacZ was half-maximal): 58 µM

CO/N=C(\C(=O)N[C@@H]1C(=O)N2C(C(=O)O)=C(C[N+]3(C)CCCC3)CS[C@H]12)c1csc(N)n1 [cefepime]
IC50 [3, 9]: 4.6 µM

N=C(N)NC(=O)Cc1c(Cl)cccc1Cl [guanfacine]
IC50 (phzB2-lacZ): 19 µM | levels of HHQ, PQS and several other quinolines (HHQ and PQS production): decreased levels | fold less PQS relative to DMSO-treated control (HHQ and PQS production; 40 μM guanfacine): 4.5 fold | reduction of reporter expression across seven reporter strains [4]: 2-9 fold | reduction in the levels of pyocyanin (pyocyanin biosynthesis): 1.5 fold | effect on virulence factor expression in screen [1, 7]: A similar effect | growth inhibition (growth curve versus DMSO control) (P. aeruginosa [5]): not growth-inhibitory | suppression of pelG expression (pelG-lacZ; 80 μM guanfacine): Nearly complete suppression | IC50 (pelG-lacZ; Pseudomonas aeruginosa, pelG-lacZ): 3.1 µM | suppression of pelB expression (pelB-lacZ; 80 μM guanfacine): Nearly complete suppression | IC50 (pelB-lacZ; Pseudomonas aeruginosa, pelB-lacZ): 5.8 µM | effect on HHQ and pyocyanin production in pmrB::Tn cultures [6]: no further effect

CCN1CCN(C(=O)N[C@@H](C(=O)N[C@@H]2C(=O)N3[C@@H]2SC(C)(C)[C@@H]3C(=O)O)c2ccccc2)C(=O)C1=O [Piperacillin]
IC50 [3, 9]: 6.4 µM | effect on virulence factor expression in screen [1, 7]: further enhance the expression of virulence factors | EC50 (phzF1-lacZ; [10]): 8.4 µM

C[C@]12CC[C@@H]3c4ccc(O)cc4CC[C@H]3[C@@H]1CC[C@@H]2O [Estradiol]
% Growth Inhibition (P. aeruginosa [2]; [8]): 73%

CC(C)(O/N=C(\C(=O)N[C@@H]1C(=O)N2C(C(=O)O)=C(C[n+]3ccccc3)CS[C@H]12)c1csc(N)n1)C(=O)O [ceftazidime]
IC50 [3, 9]: 53 µM | EC50 (phzF1-lacZ; [10]): 21 µM

COc1ccc2cc([C@H](C)C(=O)O)ccc2c1 [naproxen]
effect on virulence factor expression in screen [1]: down-regulated virulence factor expression

CCCCCOc1ccc(-c2cc(-c3ccc(C(=O)N[C@H]4C[C@@H](O)[C@@H](O)NC(=O)[C@@H]5[C@@H](O)[C@@H](C)CN5C(=O)[C@H]([C@H](O)CC(N)=O)NC(=O)[C@H]([C@H](O)[C@@H](O)c5ccc(O)c(OS(=O)(=O)O)c5)NC(=O)[C@@H]5C[C@@H](O)CN5C(=O)[C@H]([C@@H](C)O)NC4=O)cc3)no2)cc1 [Micafungin] (X1-[Orn(4R-OH,5R-OH)]T[Hyp][hTyr(3S-OH,4S-OH,3'-OSO3H)][Gln(3R-OH)][Pro(3S-OH,4S-Me)]; lactam 1-C)
% Growth Inhibition (P. aeruginosa [2]; [8]): 54%

COc1cc(Cc2cnc(N)nc2N)cc(OC)c1OC [Trimethoprim]
% Growth Inhibition (P. aeruginosa [2]): 73%

O=C(N[C@H](CO)[C@H](O)c1ccc([N+](=O)[O-])cc1)C(Cl)Cl [Chloramphenicol]
% Growth Inhibition (P. aeruginosa [2]; [8]): 64%

CC/C(=C(\c1ccccc1)c1ccc(OCCN(C)C)cc1)c1ccccc1 [Tamoxifen]
% Growth Inhibition (P. aeruginosa [2]): 57%
